Values quoted from earlier work as cited in US5574044A, “Muscarine antagonists” (Merck & Co., Inc., priority 1994, dated 1996).

Legend:
[1] = system: smooth muscle (M3 type) receptor; settings: ordinarily called M3 type but variously called type M2 or M3
eye = settings: in vivo
pupil = settings: in vivo
ciliary muscle = settings: in vivo
[2] = in vivo

| SMILES | selectivity for smooth muscle (M3 type) receptor [1] | axial elongation / enlargement of the eye (eye) | muscarinic selectivity and duration (muscarinic receptors) | pupil dilation (pupil) | action on the ciliary muscle / ocular focusing (ciliary muscle) | sensitization assays [2] |
| --- | --- | --- | --- | --- | --- | --- |
| C[N+]1(C)CCC(OC(=O)C(c2ccccc2)c2ccccc2)CC1 [Example 4-DAMP, 4-diphenylacetoxy-N-methylpiperadine methiodide] | relatively selective antagonist for smooth muscle |  |  |  |  |  |
| CN1CCc2cccc3c2[C@H]1Cc1ccc(O)c(O)c1-3 [apomorphine] |  | inhibit or actually prevent the axial enlargement of the eye |  |  |  |  |
| CN1[C@@H]2CC[C@H]1C[C@@H](OC(=O)C(CO)c1ccccc1)C2 (stereo partly drawn) [atropine] |  |  | long-acting non-specific antimuscarinic agent | causes mydriases (increase of pupil size) | its action on the ciliary muscle to inhibit ocular focusing impairs near visual work like reading | test positive in sensitization assays |
| CN1CCN(CC(=O)N2c3ccccc3C(=O)Nc3cccnc32)CC1 [pirenzepine] |  | inhibits axial elongation |  | far less effective at pupil dilation than atropine |  | test positive in sensitization assays |
